Data published in patent US20230277569A1, “Compositions and Methods for Treating, Ameliorating and/or Preventing Cancer and Kits for the Same” (priority 2022, published 2023).
“Also recorded” adds a separate entry of the source. Like-named read-outs stand apart in the source and are kept apart here.

Columns and labels:
beagle dogs [1] = assay: Electrocardiography studies in beagle dogs; format: in vivo
Method: At each time point, eight-lead ECGs were continuously recorded for at least 30 sec. At least five consecutive ECG waveforms and the associated RR intervals deemed most representative were selected for quantitative analysis at each time point. The ECG interval measurements (PR, QRS, QT, QTc, RR, and heart rate) were made on a single lead. The measured waveforms at each time point were averaged and reported. The QTc interval was calculated using the Fridericia (QT/[RR]^1/3) method. The RR interval was used to derive the heart rate and in QT interval correction. Qualitative assessments included normal sinus rhythm variations, abnormal sinus rhythms, conductance or repolarization abnormalities, bradycardia, and tachycardia. Group comparisons of ECG data (PR, QRS, QT, QTc, and heart rate) were analyzed using ANOVA.

plasma proteins = assay: Plasma protein binding (rapid equilibrium dialysis); format: in vitro ADME, human; conditions: 2 μg/mL, 4-h incubation, 37° C.
Method: (§2) Spiked plasma samples were prepared by adding 12 μL of each working solution into 1.2 mL of blank plasma to a final concentration of 2 μg/mL. Plasma protein binding incubations were performed in triplicate by adding 500 μL of PBS into each white chamber and 300 μL of spiked plasma into each red chamber of the RED device. The device was covered with a sealing tape and placed on an orbital shaker at a shaking speed of 100 rpm at 37° C. in 5% CO2. After a 4-h incubation, a 40 μL plasma sample was transferred from each red chamber to the wells of a 96-well plate containing 160 μL of PBS. A 160 μL PBS aliquot from each white chamber was transferred to the wells of the same plate containing 40 μL of blank plasma. After matching the matrix for all samples, 400 μL aliquots of stop solution were added to each well of the 96-well sample plate. […] A 100 μL aliquot of supernatant from each well was transferred to a new 96-well sample plate and further mixed with 100 μL of Milli-Q (ultrapure) water before analysis by liquid chromatography—tandem mass spectrometry (LC-MS/MS).

[2] = as above; format: in vitro ADME, human; conditions: human, plasma, 4-h incubation, 37° C.
Method: as §2

tumor = conditions: cited from earlier work
beagle dogs [3] = assay: Toxicity in beagle dogs, IV infusion for 36 d; format: in vivo
Method: (§1) Eighteen male and female (5-6 mo old) purebred beagle dogs (Cumberland, Va.) were acclimated for 47 d (20 to 26° C., relative humidity 30-70%, 10 or greater air changes/h, and a 12-h light/dark cycle) prior to study initiation. Animals were given water ad libitum and Certified Canine Diet #5007 (PMI Nutrition International Certified LabDiet®) for 4 to 5 h each day. At study initiation, animal body weights ranged from 8.6 to 11.5 kg for males and 6.0 to 9.4 kg for females. At least 1 week prior to initiation of dosing, animals were fasted overnight, anesthetized, and a catheter attached to a subcutaneous vascular access port was surgically implanted into a jugular vein. Animals were acclimated to infusion jackets prior to catheter implantation surgery. Animals were infused with sterile saline at a dose rate of 5 mL/h when the vascular access ports were accessed and when animals were connected to the infusion system (except when dosed with the test or vehicle control article). The patency of each catheter was checked as needed. Prednisolone tablets were administered orally at 2 mg/kg the night prior to dosing. Diphenhydramine (5 mg/kg; IM injection 0.1 mL/kg, 50 mg/mL) was administered prior to dosing and post the start of infusion (d 1 only). Male and female dogs received dose levels of Gamitrinib of 1.25, 3.33 and 6.25 mg/kg/dose formulated as indicated above during a 1 h infusion on d 1, 8, 11, 15, 18, 22, 25, 29, 32, and 36 at a volume of 2 mL/kg. The vehicle control was as above. […] Dosing was stopped, and 23 of 24 animals were administered additional diphenhydramine, 11 were administered Flunixin meglumine and buprenorphine, and 6 were administered acepromazine. Symptoms subsided in all animals after completion of these interventions. As a result of these observations, the polysorbate levels, which were increased from 0.025% (w/v) to 0.125% (w/v) to minimize precipitation, were returned to the original concentrations; 2 mg/kg prednisone was administered orally the night prior to dosing; and the diphenhydramine pretreatment dose was updated to 5 mg/kg 15 to 30 min prior to dosing. Detailed observations were conducted for each animal up to seven times during the predose phase, prior to dosing on d 1, 8, 15, 22, 29, and 36 of the dosing phase, and on d 1, 7, and 14 of the recovery phase. Blood samples (1 mL) were collected via the cephalic vein 5, 15, and 30 min and 1, 4, 8, and 24 h post the end of infusion on d 8 and 36 of the dosing phase. Formalin-fixed and paraffin-embedded tissue samples collected at the end of the study (d 39) were processed for histologic examination.

[4] = Toxicity in beagle dogs, IV infusion for 36 d; format: in vivo; conditions: beagle, dog, in vivo, iv, dogs; for AUC(0-t): read-out: AUC0-24
Method: as §1

[5] = 3.33 mg/kg/dose (NOAEL), d 36 of dosing, both sexes
[6] = 6.25 mg/kg/dose (HNSTD), d 36, both sexes

## CO[C@H]1/C=C\C=C(/C)C(=O)NC2=CC(=O)C(NCCCCCC[P+](c3ccccc3)(c3ccccc3)c3ccccc3)=C(C[C@@H](C)C[C@H](OC)[C@H](O)[C@@H](C)/C=C(\C)[C@@H]1OC(N)=O)C2=O [Gamitrinib, 17-Demethoxy-17-((6-(triphenylphosphonio)hexyl)amino)geldanamycin]
Beagle dogs [1]; d 32 of dosing at 1.25, 3.33 or 6.25 mg/kg/dose, d 11 of recovery at 6.25
  ECG changes in PR interval, QRS duration, QT interval, or heart rate: No Gamitrinib-related ECG changes
Beagle dogs [1]; dogs
  rhythm abnormalities or qualitative ECG changes: No other rhythm abnormalities or qualitative ECG changes were observed
Beagle dogs [1]; female dogs 6.25 mg/kg/dose, both sexes 1.25 or 3.33 mg/kg/dose
  prolongation of QTc interval: No Gamitrinib-related prolongation of QTc interval
Beagle dogs [1]; one out of 5 male dogs at 6.25 mg/kg/dose, d 32 of dosing
  prolongation of QTc interval: 17 ms
Beagle dogs [1]; one out of 5 male dogs at 6.25 mg/kg/dose, d 32 of dosing, reversed in recovery
  prolongation of QTc interval: 7%
Plasma proteins
  bound to plasma proteins: 99.3±0.07%
[2]; read-out: average free fraction
  fraction unbound at 4 h, 2 μg/mL: 0.007 ± 0.0007
[2]; read-out: bound to plasma proteins
  fraction unbound at 4 h, 2 μg/mL: < 0.01
tumor
  therapeutically effective dose in mice: 10 mg/kg
Beagle dogs [3]; beagle dogs, IV for 36 d
  NOAEL: 3.33 mg/kg/dose
  highest non-severely toxic dose (HNSTD): 6.25 mg/kg/dose
Beagle dogs [3]; dog, in vivo
  Bone marrow and liver parameters: unremarkable
  changes in organ weights: No Gamitrinib-related changes
Beagle dogs [3]; dogs (both sexes), 6.25 mg/kg/dose, 6.25 mg/kg
  serum urea nitrogen and creatinine: trend of increased serum urea nitrogen and creatinine; also recorded: modest elevation of urea nitrogen and creatinine concentrations
Beagle dogs [3]; dogs, 6.25 mg/kg/dose, reversible during recovery
  kidney microscopic finding: slight to moderate kidney tubular degeneration/regeneration
Beagle dogs [3]; dogs, 1.25, 3.33 and 6.25 mg/kg/dose
  alterations in body weight or other clinical observations: no alterations
Beagle dogs [3]; female dogs, 3.33 mg/kg, day 1
  Body weight: 7.6 ± 0.9 kg
Beagle dogs [3]; female dogs, 3.33 mg/kg, day 8
  Body weight: 7.6 ± 0.9 kg
Beagle dogs [3]; female dogs, 3.33 mg/kg, day 15
  Body weight: 7.6 ± 1.06 kg
Beagle dogs [3]; female dogs, 3.33 mg/kg, day 22
  Body weight: 7.5 ± 0.75 kg
Beagle dogs [3]; female dogs, 3.33 mg/kg, day 29
  Body weight: 7.6 ± 0.7 kg
Beagle dogs [3]; female dogs, 3.33 mg/kg, day 36
  Body weight: 7.5 ± 0.8 kg
Beagle dogs [3]; female dogs, 6.25 mg/kg, day 1
  Body weight: 7.7 ± 0.57 kg
Beagle dogs [3]; female dogs, 6.25 mg/kg, day 8
  Body weight: 7.7 ± 0.62 kg
Beagle dogs [3]; female dogs, 6.25 mg/kg, day 15
  Body weight: 7.4 ± 0.54 kg
Beagle dogs [3]; female dogs, 6.25 mg/kg, day 22
  Body weight: 7.2 ± 0.6 kg
Beagle dogs [3]; female dogs, 6.25 mg/kg, day 29
  Body weight: 7.3 ± 0.58 kg
Beagle dogs [3]; female dogs, 6.25 mg/kg, day 36
  Body weight: 7.3 ± 0.59 kg
Beagle dogs [3]; male dogs, 3.33 mg/kg, day 1
  Body weight: 10.1 ± 1.1 kg
Beagle dogs [3]; male dogs, 3.33 mg/kg, day 8
  Body weight: 10 ± 1.04 kg
Beagle dogs [3]; male dogs, 3.33 mg/kg, day 15
  Body weight: 9.9 ± 1.15 kg
Beagle dogs [3]; male dogs, 3.33 mg/kg, day 22
  Body weight: 10.2 ± 1.21 kg
Beagle dogs [3]; male dogs, 3.33 mg/kg, day 29
  Body weight: 10.1 ± 1.21 kg
Beagle dogs [3]; male dogs, 3.33 mg/kg, day 36
  Body weight: 10 ± 1.36 kg
Beagle dogs [3]; male dogs, 6.25 mg/kg, day 1
  Body weight: 9.9 ± 0.83 kg
Beagle dogs [3]; male dogs, 6.25 mg/kg, day 8
  Body weight: 9.8 ± 0.85 kg
Beagle dogs [3]; male dogs, 6.25 mg/kg, day 15
  Body weight: 9.5 ± 0.57 kg
Beagle dogs [3]; male dogs, 6.25 mg/kg, day 22
  Body weight: 9.2 ± 0.57 kg
Beagle dogs [3]; male dogs, 6.25 mg/kg, day 29
  Body weight: 9.2 ± 0.46 kg
Beagle dogs [3]; male dogs, 6.25 mg/kg, day 36
  Body weight: 9.1 ± 0.58 kg
[4]; [5]
  Cmax: 560 ± 404 ng/mL
  AUC(0-t): 1740 ± 713 ng·h/mL
[4]; [6]
  Cmax: 1260 ± 556 ng/mL
  AUC(0-t): 3290 ± 1090 ng·h/mL
